Assay results as given in PubChem BioAssay (NCI).
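Five concentrations, 48 hours, 96-well plates. Definition used: TGI = concentration required for complete inhibition of growth.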

Columns and labels:
Assay in all cases: inhibition of tumour cell growth, NCI panel, 48 h
CCRF-CEM leukemia = test system: CCRF-CEM leukemia
RPMI-8226 leukemia = test system: RPMI-8226 leukemia
SK-MEL-28 melanoma = test system: SK-MEL-28 melanoma
KM12 colon = test system: KM12 colon
NCI-H226 lung = test system: NCI-H226 lung
SK-OV-3 ovarian = test system: SK-OV-3 ovarian
SW-620 colon = test system: SW-620 colon
OVCAR-4 ovarian = test system: OVCAR-4 ovarian
UACC-257 melanoma = test system: UACC-257 melanoma
RXF-631 renal = test system: RXF-631 renal
SF-295 CNS = test system: SF-295 CNS
SK-MEL-5 melanoma = test system: SK-MEL-5 melanoma
OVCAR-5 ovarian = test system: OVCAR-5 ovarian
SF-268 CNS = test system: SF-268 CNS
SR leukemia = test system: SR leukemia
CAKI-1 renal = test system: CAKI-1 renal
SNB-19 CNS = test system: SNB-19 CNS
TK-10 renal = test system: TK-10 renal
A498 renal = test system: A498 renal
OVCAR-3 ovarian = test system: OVCAR-3 ovarian
MALME-3M melanoma = test system: MALME-3M melanoma
HOP-18 NSCLC = test system: HOP-18 NSCLC
DLD-1 colon = test system: DLD-1 colon
ACHN renal = test system: ACHN renal
A549 NSCLC = test system: A549 NSCLC
XF 498 CNS = test system: XF 498 CNS
COLO 205 colon = test system: COLO 205 colon
SN12C renal = test system: SN12C renal
SK-MEL-2 melanoma = test system: SK-MEL-2 melanoma
HOP-92 NSCLC = test system: HOP-92 NSCLC
NCI-H522 lung = test system: NCI-H522 lung
U251 CNS = test system: U251 CNS
SNB-75 CNS = test system: SNB-75 CNS
IGROV1 ovarian = test system: IGROV1 ovarian
HCT-116 colon = test system: HCT-116 colon
DMS 114 small cell lung = test system: DMS 114 small cell lung
UACC-62 melanoma = test system: UACC-62 melanoma
MOLT-4 leukemia = test system: MOLT-4 leukemia
K-562 leukemia = test system: K-562 leukemia
M19-MEL melanoma = test system: M19-MEL melanoma
KM20L2 colon = test system: KM20L2 colon
HCT-15 colon = test system: HCT-15 colon
SF-539 CNS = test system: SF-539 CNS
OVCAR-8 ovarian = test system: OVCAR-8 ovarian
786-0 renal = test system: 786-0 renal
NCI-H460 lung = test system: NCI-H460 lung
LOX IMVI melanoma = test system: LOX IMVI melanoma
M14 melanoma = test system: M14 melanoma
HL-60(TB) leukemia = test system: HL-60(TB) leukemia
NCI-H23 lung = test system: NCI-H23 lung
HOP-62 NSCLC = test system: HOP-62 NSCLC
UO-31 renal = test system: UO-31 renal
HT29 colon = test system: HT29 colon
LXFL 529 NSCLC = test system: LXFL 529 NSCLC
DMS 273 small cell lung = test system: DMS 273 small cell lung
HCC-2998 colon = test system: HCC-2998 colon
EKVX NSCLC = test system: EKVX NSCLC
SNB-78 CNS = test system: SNB-78 CNS
RXF 393 renal = test system: RXF 393 renal

Measured: TGI

C[C@]12CCCC(=O)C1(O)C[C@H](C(=O)O)CC2 (stereo partly drawn)
not listed: EKVX NSCLC | SNB-78 CNS | RXF 393 renal
> 100 µM: all other assays above

C/C(CCc1ccccc1)=N\NC(N)=S
not listed: SNB-19 CNS | NCI-H522 lung
> 100 µM: all other assays above
